Measurements taken from US20030083325A1, “Serotonin antagonists” (priority 1992, published 2003).
Where a name gives a salt, the structure may show the parent alone.

Legend:
5HT2 receptor = biological target: T1, 5HT2 receptor (Rattus norvegicus, UniProt P14842); test: spiroperidol binding test (5HT2 binding affinity); conditions: [3H] spiroperidol binding; concentration of compound at 50% inhibition
T1 construct: from tissue
Description: As noted above, the compounds of Formula I are serotonin 5HT2 antagonists. […] In this test, 5HT2 receptors are exposed to both [^3H] spiroperidol, (a substance known to have a specific affinity for the receptor) and the test compound. The extent to which there is a decrease in binding of the [^3H] spiroperidol to the receptor is indicative of the affinity of the test compound for the 5HT2 receptor.
d) any reference to “5HT2 binding affinity” refers to the spiroperidol binding test as described by Peroutka et al., in Mol.Pharmacol., Vol. 16, pages 687-699 (1979).

thrombus formation = conditions: canine models; cited from earlier work
[1] = system: coronary vessel constriction; conditions: patients with stable angina; cited from earlier work
[2] = system: preference for alcohol and cocaine; conditions: rodent model of drug abuse; cited from earlier work

T1 sequence (P14842 whole entry): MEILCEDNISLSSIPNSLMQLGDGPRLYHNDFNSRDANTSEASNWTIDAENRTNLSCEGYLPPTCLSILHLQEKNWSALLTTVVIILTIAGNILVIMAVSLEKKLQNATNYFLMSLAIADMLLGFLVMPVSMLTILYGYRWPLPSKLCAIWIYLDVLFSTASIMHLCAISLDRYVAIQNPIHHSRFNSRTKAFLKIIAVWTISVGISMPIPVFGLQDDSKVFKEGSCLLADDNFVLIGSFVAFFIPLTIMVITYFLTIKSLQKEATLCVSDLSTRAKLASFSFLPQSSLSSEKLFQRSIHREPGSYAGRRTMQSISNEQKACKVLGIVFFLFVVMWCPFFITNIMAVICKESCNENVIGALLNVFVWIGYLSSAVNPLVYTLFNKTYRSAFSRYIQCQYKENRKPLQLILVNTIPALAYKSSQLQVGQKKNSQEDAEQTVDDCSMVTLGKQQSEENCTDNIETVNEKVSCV

SMILES	IC50 (5HT2 receptor) [nM]	further results
O=C(CN1CCC(CN2C(=O)[C@@H]3CCCC[C@H]3C2=O)CC1)c1ccc(F)cc1 (relative stereo) [Example 5, trans-2-[[1-[2-(4-fluorophenyl)-2-oxoethyl]-4-piperidinyl]methyl]hexahydro-1H-isoindole-1,3(2H)-dione monohydrochloride]	76	–
O=C(CN1CCC(CN2C(=O)C(c3ccccc3)=C(c3ccccc3)C2=O)CC1)c1ccc(F)cc1 [Example 7, 1-[[1-[2-(4-fluorophenyl)-2-oxoethyl]-4-piperidinyl]methyl]-3,4-diphenyl-1H-pyrrole-2,5-dione monohydrohydrochloride]	307	–
Cc1ccc2c(c1)C(=O)N(CC1CCN(CC(=O)c3ccc(F)cc3)CC1)C2=O [Example 8, 2-[[1-[2-(4-fluorophenyl)-2-oxoethyl]-4-piperidinyl]methyl]-5-methyl-1H-isoindole-1,3(2H)-dione monohydrochloride]	116	–
O=C(CN1CCC(CN2C(=O)c3cccc4cccc(c34)C2=O)CC1)c1ccc(F)cc1 [Example 9, 2-[[1-[2-(4-fluorophenyl)-2-oxoethyl]-4-piperidinyl]methyl]-1H-benz[de]isoquinoline-1,3(2H)-dione monohydrochloride]	96	–
O=C(CN1CCC(CN2C(=O)c3ccccc3C2=O)CC1)c1ccccc1 [Example 10, 2-[[1-[2-phenyl-2-oxoethyl]-4-piperidinyl]methyl]-1H-isoindole-1,3(2H)-dione monohydrochloride]	13	–
O=C(CN1CCC(Cn2c(=O)[nH]c3ccccc3c2=O)CC1)c1ccc(F)cc1 [Example 12, 2-[[1-[2-(4-fluorophenyl)-2-oxoethyl]-4-piperidinyl]methyl]-benzoyleneurea]	14.9	–
O=C(c1ccc(F)cc1)C1CCN(CCn2c(=O)[nH]c3ccccc3c2=O)CC1 [Ketanserin]	–	prevention of thrombus formation (thrombus formation): extremely effective in preventing thrombus formation; coronary vessel constriction [1]: blocked coronary vessel constriction
Cc1nc2sccn2c(=O)c1CCN1CCC(=C(c2ccc(F)cc2)c2ccc(F)cc2)CC1 [ritanserin]	–	preference for alcohol and cocaine [2]: abolished the preference for both alcohol and cocaine

The next lines start with results.

IC50 (5HT2 receptor) [nM]	SMILES	further results
48	O=C(CN1CCC(CN2C(=O)C3C4C=CC(CC4)C3C2=O)CC1)c1ccc(F)cc1 (stereo not drawn) [Example 1, 2-[[1-[2-(4-fluorophenyl)-2-oxoethyl]-4-piperidinyl]methyl]-3a,4,7,7a-tetrahydro-4,7-ethano-1H-isoindole-1,3(2H)-dione monohydrochloride]	–
13	O=C(CN1CCC(CN2C(=O)c3ccccc3C2=O)CC1)c1ccc(F)cc1 [Example 2, 2-[[1-[2-(4-fluorophenyl)-2-oxoethyl]-4-piperidinyl]methyl]-1H-isoindole-1,3(2H)-dione]	–
206	O=C(CN1CCC(CN2C(=O)C3CC=CCC3C2=O)CC1)c1ccc(F)cc1 (stereo not drawn) [Example 3, 2-[[1-[2-(4-fluorophenyl)-2-oxoethyl]-4-piperidinyl]methyl]-3a,4,7,7a-tetrahydro-1H-isoindole-1,3(2H)-dione monohydrohydrochloride]	–
162	O=C(CN1CCC(CN2C(=O)[C@H]3CCCC[C@H]3C2=O)CC1)c1ccc(F)cc1 [Example 4, cis-2-[[1-[2-(4-fluorophenyl)-2-oxoethyl]-4-piperidinyl]methyl]hexahydro-1H-isoindole-1,3(2H)-dione monohydrochloride]	–
172	O=C(CN1CCC(CN2C(=O)C3C4C=CC(C4)C3C2=O)CC1)c1ccc(F)cc1 (stereo not drawn) [Example 6, 2-[[1-[2-(4-fluorophenyl)-2-oxoethyl]-4-piperidinyl]methyl]-3a,4,7,7a-tetrahydro-4,7-methano-1H-isoindole-1,3(2H)-dione monohydrochloride]	–
33	O=C(CN1CCC(CN2C(=O)c3cccc(F)c3C2=O)CC1)c1ccc(F)cc1 [Example 11, 2-[[1-[2-(4-fluorophenyl)-2-oxoethyl]-4-piperidinyl]methyl]-4-fluoro-1H-isoindole-1,3(2H)-dione monohydrochloride]	–
